Assay results from patent US12152255B2, “ω-Transaminase mutant obtained by DNA synthetic shuffling combined mutation and use” (priority 2020, dated 2024).
Like-named read-outs stand apart in the source and are kept apart here.

Assays:
[1] = molecular target: Aspergillus terreus ω-transaminase mutant F115L-H210N-E253A-I295V (parent SEQ ID NO: 1; gene SEQ ID NO: 5) (Aspergillus terreus, UniProt Q0C8G1); experiment: Kinetic parameters, transamination (acetophenone formation at 245 nm), F115L-H210N-E253A-I295V; type: biochemical
[2] = molecular target: T1, Aspergillus terreus ω-transaminase, wild type (WT-ATA), SEQ ID NO: 1 (Aspergillus terreus, UniProt Q0C8G1); experiment: Kinetic parameters, transamination (acetophenone formation at 245 nm), WT-ATA; settings: phosphate buffer pH 8.0, 0.1 mM PLP
T1 sequence (Q0C8G1 1-325): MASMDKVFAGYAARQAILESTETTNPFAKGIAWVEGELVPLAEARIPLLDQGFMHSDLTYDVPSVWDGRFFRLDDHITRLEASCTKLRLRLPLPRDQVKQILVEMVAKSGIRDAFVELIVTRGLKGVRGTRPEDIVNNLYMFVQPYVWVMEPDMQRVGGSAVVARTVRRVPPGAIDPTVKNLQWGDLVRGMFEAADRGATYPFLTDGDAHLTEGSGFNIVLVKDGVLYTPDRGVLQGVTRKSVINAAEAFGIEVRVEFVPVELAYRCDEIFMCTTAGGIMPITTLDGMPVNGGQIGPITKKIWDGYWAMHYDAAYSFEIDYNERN

[3] = molecular target: Aspergillus terreus ω-transaminase mutant I77L-F115L-E133A-H210N-N245D (parent SEQ ID NO: 1; gene SEQ ID NO: 6) (Aspergillus terreus, UniProt Q0C8G1, D224K/E133A/F115L/H210N/I77L/N245D); experiment: Kinetic parameters, transamination (acetophenone formation at 245 nm), I77L-F115L-E133A-H210N-N245D; type: biochemical; settings: phosphate buffer pH 8.0, 0.1 mM PLP
[4] = molecular target: Aspergillus terreus ω-transaminase mutant F115L-H210N-M150C-M280C (parent SEQ ID NO: 1; gene SEQ ID NO: 3) (Aspergillus terreus, UniProt Q0C8G1, E253A/F115L/H210N/M150C/M280C); experiment: Kinetic parameters, transamination (acetophenone formation at 245 nm), F115L-H210N-M150C-M280C; type: biochemical; settings: phosphate buffer pH 8.0, 0.1 mM PLP
[5] = molecular target: Aspergillus terreus ω-transaminase mutant I77L-E133A-N245D-G292D (parent SEQ ID NO: 1; gene SEQ ID NO: 8) (Aspergillus terreus, UniProt Q0C8G1, E133A/G292D/I77L/N245D); experiment: Kinetic parameters, transamination (acetophenone formation at 245 nm), I77L-E133A-N245D-G292D; type: biochemical; settings: phosphate buffer pH 8.0, 0.1 mM PLP
[6] = molecular target: Aspergillus terreus ω-transaminase mutant F115L-H210N (parent SEQ ID NO: 1; gene SEQ ID NO: 4) (Aspergillus terreus, UniProt Q0C8G1, D231A/F115L/H210N); experiment: Kinetic parameters, transamination (acetophenone formation at 245 nm), F115L-H210N; type: biochemical; settings: phosphate buffer pH 8.0, 0.1 mM PLP
[7] = test system: Aspergillus terreus ω-transaminase mutant H210N-N245D-E253A-G292D (parent SEQ ID NO: 1; gene SEQ ID NO: 9); experiment: Kinetic parameters, transamination (acetophenone formation at 245 nm), H210N-N245D-E253A-G292D; type: biochemical; settings: phosphate buffer pH 8.0, 0.1 mM PLP
[8] = molecular target: Aspergillus terreus ω-transaminase mutant I77L-Q97E-F115L-L118T-E253A-G292D (parent SEQ ID NO: 1; gene SEQ ID NO: 7) (Aspergillus terreus, UniProt Q0C8G1, D224A/E253A/F115L/G292D/I77L/L118T/Q97E); experiment: Kinetic parameters, transamination (acetophenone formation at 245 nm), I77L-Q97E-F115L-L118T-E253A-G292D; type: biochemical; settings: phosphate buffer pH 8.0, 0.1 mM PLP
[9] = test system: C[C@@H](N)c1ccccc1; experiment: Kinetic parameters, transamination (acetophenone formation at 245 nm), I77L-E133A-N245D-G292D; type: biochemical, Aspergillus terreus; settings: other: I77L-E133A-N245D-G292D, phosphate buffer pH 8.0, 0.1 mM PLP
[10] = test system: CC(=O)C(=O)O; experiment: as above; type: biochemical, Aspergillus terreus; settings: other: I77L-E133A-N245D-G292D, phosphate buffer pH 8.0, 0.1 mM PLP
[11] = substrate: CC(=O)C(=O)O; experiment: purified protein, by the assay type; settings: other: WT-ATA, phosphate buffer pH 8.0, 0.1 mM PLP
[12] = phosphate buffer pH 8.0, 0.1 mM PLP

`C[C@@H](N)c1ccccc1` [α-MBA, (R)-(+)-α-methylbenzylamine] was tested, and the Km ([1]; read-out: Km^α-MBA, phosphate buffer pH 8.0, 0.1 mM PLP) was 800 ± 30 µM.

`CC(=O)C(=O)O` [pyruvate, pyruvic acid] was tested, and the “Kcat^pyruvate” value [1, 12] was 3.17 ± 0.01 s⁻¹, the “kcat/Km^pyruvate” value [1, 12] was 2030 M⁻¹ s⁻¹ and the Km ([1]; read-out: Km^pyruvate, phosphate buffer pH 8.0, 0.1 mM PLP) was 1560 ± 70 µM. The “Kcat^pyruvate” value [2] was 0.50 ± 0.01 s⁻¹, the “kcat/Km^pyruvate” value [2] was 2220 M⁻¹ s⁻¹ and the “Kcat^pyruvate” value [3] was 1.96 ± 0.03 s⁻¹. The “kcat/Km^pyruvate” value [3] was 990 M⁻¹ s⁻¹, the “Kcat^pyruvate” value [4] was 3.87 ± 0.03 s⁻¹ and the “kcat/Km^pyruvate” value [4] was 1450 M⁻¹ s⁻¹. For the same molecule, the “Kcat^pyruvate” value [5] was 3.05 ± 0.02 s⁻¹, the “kcat/Km^pyruvate” value [5] was 1180 M⁻¹ s⁻¹ and the “Kcat^pyruvate” value [6] was 2.55 ± 0.01 s⁻¹. The “kcat/Km^pyruvate” value [6] was 1710 M⁻¹ s⁻¹, the “Kcat^pyruvate” value [7] was 1.89 ± 0.03 s⁻¹ and the “kcat/Km^pyruvate” value [7] was 3010 M⁻¹ s⁻¹. For the same molecule, the “Kcat^pyruvate” value [8] was 2.76 ± 0.01 s⁻¹ and the “kcat/Km^pyruvate” value [8] was 1330 M⁻¹ s⁻¹.

In the case of “Aspergillus terreus ω-transaminase mutant I77L-E133A-N245D-G292D (parent SEQ ID NO: 1; gene SEQ ID NO: 8) (Aspergillus terreus NIH2624; E133A/G292D/I77L/N245D)”, the Km [9] is reported as 840 ± 50 µM and the Km [10] is reported as 2590 ± 20 µM.

B1: Aspergillus terreus ω-transaminase, wild type (WT-ATA), SEQ ID NO: 1 (Aspergillus terreus NIH2624) (protein)
chain: T1 sequence (Q0C8G1 1-325)
Work on B1 yielded a Km [11] of 230 ± 20 µM.
